Data published in patent US10173999B2, “Cyclic amine derivative and pharmaceutical use thereof” (Toray Industries, Inc., priority 2015, dated 2019).
“Also recorded” adds a separate entry of the source. Where a name gives a salt, the structure may show the parent alone.

What was measured:
[1] = test system: mouse partial sciatic nerve ligation model (neuropathic pain); assay: Mouse partial sciatic nerve ligation model (Seltzer model), von Frey test; format: in vivo; conditions: Comparative Example 7: oral, 7 days after ligation, 1-3 h after dosing; 0.01-1 mg/kg (Comp Ex 1), 10 mg/kg (Comp Ex 3-6, pregabalin); vs ligation+distilled water; t-test corrected by Dunnett
[2] = test system: fibromyalgia syndrome model rats; assay: Rat fibromyalgia syndrome model (acidic saline), allodynia by von Frey filament; format: in vivo; conditions: for allodynia (50% response threshold) vs acidic saline+distilled water group: Day 7, pregabalin 10 mg/kg
Method: To prepare a fibromyalgia syndrome model rat (Sluka et al., Journal of Pharmacology and Experimental Therapeutics, vol. 302, p. 1146-1150, 2002; Nagakura et al., Pain, vol. 146, p. 26-33, 2009; Sluka et al., Pain, vol. 146, p. 3-4, 2009), which is generally employed widely in basic research for fibromyalgia syndrome, acidic saline (100 μL) adjusted to pH 4.0 was intramuscularly injected to the gastrocnemius muscle of the right hind paw of Crl: CD(SD) rat (6 to 7 weeks old, male; from CHARLES RIVER LABORATORIES JAPAN, INC.) under continuous inhalation anesthesia with isoflurane, twice (once in each day of Day 1 and Day 6, wherein Day 1 was the date on which the acidic saline was initially administrated). The rats thus prepared were raised in a breeding room controlled at an indoor temperature of 21 to 25° C. and an indoor humidity of 40 to 70% under the conditions of voluntary intake of food and water. In the same manner, rats to which physiological saline in place of acidic saline was intramuscularly injected were raised. The rats thus raised and not afflicted with fibromyalgia syndrome (“physiological saline+distilled water” group in FIG. 13) were also used in the experiment.
Seven days after the initial administration of acidic saline, allodynia in each rat was measured. […] Note that, measurement of allodynia was performed by use of a von Frey filament (from North Coast Medical) in accordance with the method described in a known literature (Chaplan et al., Journal of Neuroscience Methods, vol. 53, p. 55-63, 1994).
The fibromyalgia syndrome model rats thus obtained are divided into groups such that the 50% response threshold (mean value of the right hind paw and the left hind paw) of the individual groups became equal, and a test compound was administered to the fibromyalgia syndrome model rats on Day 7 after the initial administration of acidic saline.
The compound of Example 11 (0.1 to 10 mg/kg) was dissolved in distilled water and then orally administered to fibromyalgia syndrome model rats (“acidic saline+the compound of Example 11” in FIG. 13). Pregabalin serving as a positive control (10 mg/kg; from KEMPROTEC) was dissolved in distilled water and then orally administered (“acidic saline+pregabalin” in FIG. 13). As a control, distilled water was orally administered to fibromyalgia syndrome model rats (“acidic saline+distilled water” in FIG. 13). Furthermore, distilled water was orally administered to rats not afflicted with fibromyalgia syndrome (“physiological saline+distilled water” in FIG. 13). One hour and three hours after the oral administration, allodynia in individual rats was measured to evaluate an analgesic action. At this time, the 50% response threshold value in the measurement of allodynia before oral administration of the test compound on Day 7 after initial administration of acidic saline was defined as the pre-value.
To prepare a fibromyalgia syndrome model rat (Sluka et al., Journal of Pharmacology and Experimental Therapeutics, vol. 302, p. 1146-50, 2002; Nagakura et al., Pain, vol. 146, p. 26-33, 2009; Sluka et al., Pain, vol. 146, p. 3-4, 2009), which is generally employed widely in basic research for fibromyalgia syndrome, acidic saline (100 μL) adjusted to pH 4.0 was intramuscularly injected to the gastrocnemius muscle of the right hind paw of Slc: (SD) rats (6 to 7 weeks old, male; from Japan SLC, Inc.) under continuous inhalation anesthesia with isoflurane, twice (once in each of Day 1 and Day 6, wherein Day 1 was the initial administration date of the acidic saline). The rats thus prepared were raised in a breeding room controlled at an indoor temperature of 21 to 25° C. and an indoor humidity of 40 to 70% under the conditions of voluntary intake of food and water. In the same manner, rats to which physiological saline was intramuscularly injected in place of acidic saline were raised. […]

| Compound | analgesic action in von Frey test (total score) [1] | allodynia (50% response threshold) vs acidic saline+distilled water group ([2]; Example 15: oral, Example 11 0.1 to 10 mg/kg, 1 and 3 h after dosing) | time the analgesic action lasted after oral administration ([2]; oral administration) [h] | allodynia (50% response threshold) vs acidic saline+distilled water group ([2]; Comparative Example 8: oral, Comparative Example 1 0.1 to 1 mg/kg, 1, 2 and 3 h after dosing, hydrochloride) | persistence of analgesic action ([2]; oral administration) |
| --- | --- | --- | --- | --- | --- |
| CC(C)n1ccnc1CCC(=O)N1CCC(N(C)C)CC1 [Comparative Example 6, 1-(4-(dimethylamino)piperidin-1-yl)-3-(1-isopropyl-1H-imidazol-2-yl)propan-1-one hydrochloride] | statistically significant analgesic action |  |  |  |  |
| CN(C)C1CCN(C(=O)C[C@H](O)c2nccn2C)CC1 [Example 11, (S)-1-(4-(dimethylamino)piperidin-1-yl)-3-hydroxy-3-(1-methyl-1H-imidazol-2-yl)propan-1-one] |  | statistically significantly improved; also recorded: statistically significant analgesic action | 3 |  |  |
| CN(C)C1CCN(C(=O)CCc2nccn2C)CC1 [Comparative Example 1, 1-(4-(dimethylamino)piperidin-1-yl)-3-(1-methyl-1H-imidazol-2-yl)propan-1-one hydrochloride] | statistically significant analgesic action |  |  | statistically significantly improved; also recorded: statistically significant analgesic action | tended to significantly decrease 3 hours after oral administration |
